# Measurements published in patent EP4700040A1, “PEPTIDE AND LUMINESCENT COMPLEX CONTAINING SAME” (Shenzhen Loggene Life Science & Technology Co., Ltd., priority 2023, dated 2024).
# How the values were obtained:
# [1] = system: PCT; assay: Second library screening for PCT detection, clone supernatants, retest with CTZ-h (Example 4); assay type: biochemical, human; conditions: for Signal-to-noise ratio: PCT+/PCT-, MBP-PCT 3.3 ng/ml, CTZ-h; for PCT+: luminescence signal value with MBP-PCT 3.3 ng/ml; for PCT+ / PCT-: large subunit-rSCFV5 12.5 nM, CTZ-h 25 µM, 60 s; for PCT-: luminescence signal value, PBSAD control without PCT
# Procedure: In order to further improve the signal-to-noise ratio and complementary activity of the luciferase dual-antibody complementary activation assay, novel complementary luciferase small subunits were prepared in this example. Large subunit-rSCFV5 fusion protein (SEQ ID NO: 87) was kept unchanged, and the small subunit sequence of the rSCFV18-RB073 fusion protein (SEQ ID NO: 89) were modified by semi-randomization. The theoretical diversity was 6912, the library capacity was 10^6, and 3,000 single clones were picked. The method of protein induction and expression was the same as that in Example 2.
# Detection Methods: • (1) The concentration of large subunit-rSCFV5 fusion protein was diluted to 12.5 nM, and 15 µl was added per well; • (2) MBP-PCT fusion protein was diluted to 3.3 ng/ml with PBSAD, and 10 µl was added per well; • (3) HB2151 strain containing plasmids with different small subunit sequences were induced by IPTG at 30°C overnight, then treated with polymyxin B for 1.5h, and centrifuged to collect the supernatant, and 2.5µl supernatant was added per well; • (4) The above three components were slightly mixed, incubated at 37°C for 7 min, and Obuffer 6.37-3 containing Furimazine at a concentration of 25 µM was added, and after 3 min, the luminescence signal value was detected using a bioluminescence detector; and • (5) Clones with RLU higher than 10,000 were picked. The substrate was replaced with CTZ-h substrate for retesting (Obuffer 6.37-3 containing CTZ-h at a concentration of 25 µM was added, and after 60 s, the luminescence signal value was detected using a bioluminescence detector), and a PBSAD control was added to test the signal-to-noise ratio.
# [2] = system: PCT; assay: Sensitivity and linear range for PCT detection of preferred small subunits (Example 5); assay type: biochemical, human; conditions: for luminescence value: normalized; for Signal-to-noise ratio at 1000 pg/ml: large subunit 8.3~25 nM, small subunit fusion 30~180 nM, CTZ-h 15 µM
# Procedure: Detection Methods: • (1) The concentration of large subunit-rSCFV5 fusion protein was diluted with PBSA to 8.3~25nM, and 15µl was added per well; • (2) MBP-PCT fusion proteins were diluted with PBSAD in a downward gradient starting from 2.5 µg/ml, and 10 µl was added per well; • (3) The rSCFV18-small subunit mutant-containing fusion protein was diluted with PBSA to 30~180 nM, and 15 µl was added per well; • (4) The above three components were slightly mixed, incubated at 37°C for 15 min, and Obuffer 6.37-3 containing CTZ-h at a concentration of 15 µM was added, and the luminescence signal value was immediately detected using a bioluminescence detector (the luminescence value was normalized);
Sequence,Signal-to-noise ratio [1],PCT+ [1],PCT- [1],also measured
VDGWRLFDKKS [RC-103],6.5,8672,1337,
VDGWRLFDKKS [RC-175],11.8,6953,587,
VDGWRLFDKKS [RC-224],9.2,10561,1142,"luminescence value ([2]; PCT 0.0, background): 5000; luminescence value ([2]; PCT 1 (pg/ml)): 5021; luminescence value ([2]; PCT 3 (pg/ml)): 5002; luminescence value ([2]; PCT 10 (pg/ml)): 5260; luminescence value ([2]; PCT 30 (pg/ml)): 5685; luminescence value ([2]; PCT 100 (pg/ml)): 7341; luminescence value ([2]; PCT 1000 (pg/ml)): 28543; luminescence value ([2]; PCT 10000 (pg/ml)): 240337; luminescence value ([2]; PCT 100000 (pg/ml)): 1453897; luminescence value ([2]; PCT 250000 (pg/ml)): 1856339; Signal-to-noise ratio at 1000 pg/ml [2]: 5.7"
VDGWRLFERKS [RC-171],7.6,10309,1363,
VDGYRLFEKVS [RC-263],7.0,4768,685,"luminescence value ([2]; PCT 0.0, background): 5000; luminescence value ([2]; PCT 1 (pg/ml)): 5132; luminescence value ([2]; PCT 3 (pg/ml)): 5234; luminescence value ([2]; PCT 10 (pg/ml)): 5192; luminescence value ([2]; PCT 30 (pg/ml)): 5647; luminescence value ([2]; PCT 100 (pg/ml)): 7134; luminescence value ([2]; PCT 1000 (pg/ml)): 28776; luminescence value ([2]; PCT 10000 (pg/ml)): 240937; luminescence value ([2]; PCT 100000 (pg/ml)): 1556694; luminescence value ([2]; PCT 250000 (pg/ml)): 2230650; Signal-to-noise ratio at 1000 pg/ml [2]: 5.8"
VDGYRLFERKS [RC-203],6.6,10062,1536,
VEGWRIFERKW [RC-070],5.2,8980,1715,
VEGWRLFDRKS [RC-232],5.8,18313,3183,
VEGWRLFDRVS [RC-237],5.0,10821,2186,
VEGYRIFEKKW [RC-286],11.4,5003,438,"luminescence value ([2]; PCT 0.0, background): 5000; luminescence value ([2]; PCT 1 (pg/ml)): 4670; luminescence value ([2]; PCT 3 (pg/ml)): 4645; luminescence value ([2]; PCT 10 (pg/ml)): 4833; luminescence value ([2]; PCT 30 (pg/ml)): 5406; luminescence value ([2]; PCT 100 (pg/ml)): 6696; luminescence value ([2]; PCT 1000 (pg/ml)): 27596; luminescence value ([2]; PCT 10000 (pg/ml)): 236023; luminescence value ([2]; PCT 100000 (pg/ml)): 1443932; luminescence value ([2]; PCT 250000 (pg/ml)): 2007480; Signal-to-noise ratio at 1000 pg/ml [2]: 5.5"
VEGYRLFDKVS [RC-087],8.0,6923,861,
VEGYRLFDKVS [RC-215],11.2,5972,531,"luminescence value ([2]; PCT 0.0, background): 5000; luminescence value ([2]; PCT 1 (pg/ml)): 5095; luminescence value ([2]; PCT 3 (pg/ml)): 5206; luminescence value ([2]; PCT 10 (pg/ml)): 5458; luminescence value ([2]; PCT 30 (pg/ml)): 6156; luminescence value ([2]; PCT 100 (pg/ml)): 7892; luminescence value ([2]; PCT 1000 (pg/ml)): 35231; luminescence value ([2]; PCT 10000 (pg/ml)): 296125; luminescence value ([2]; PCT 100000 (pg/ml)): 1967363; luminescence value ([2]; PCT 250000 (pg/ml)): 2983773; Signal-to-noise ratio at 1000 pg/ml [2]: 7.0"
VEGYRLFDKVS [RC-247],8.8,4398,497,
VEGYRLFDRKS [RC-218],7.9,7242,921,"luminescence value ([2]; PCT 0.0, background): 5000; luminescence value ([2]; PCT 1 (pg/ml)): 4937; luminescence value ([2]; PCT 3 (pg/ml)): 4976; luminescence value ([2]; PCT 10 (pg/ml)): 5164; luminescence value ([2]; PCT 30 (pg/ml)): 5701; luminescence value ([2]; PCT 100 (pg/ml)): 7494; luminescence value ([2]; PCT 1000 (pg/ml)): 31585; luminescence value ([2]; PCT 10000 (pg/ml)): 266213; luminescence value ([2]; PCT 100000 (pg/ml)): 1757745; luminescence value ([2]; PCT 250000 (pg/ml)): 2436323; Signal-to-noise ratio at 1000 pg/ml [2]: 6.3"
VEGYRLFEKIS [RC-036],5.5,8563,1565,
VEGYRLFEKIS [RC-082],5.8,12852,2232,
VEGYRLFEKIS [RC-239],6.0,10022,1676,
VEGYRLFEKVS [RC-042],9.7,5769,593,
VEGYRLFERKS [RC-105],5.0,14534,2934,
VEGYRLFERKS [RC-145],10.1,8198,808,
VNGWRIFDKKS [RC-242],5.9,9037,1524,

Sequence,Signal-to-noise ratio [1],PCT+ [1],PCT- [1],also measured
VNGWRLFDKKS [RC-271],5.0,7132,1428,
VSGWRIFDKKS [RC-124],7.5,9280,1234,
VSGWRIFDRKS [RC-041],4.7,11789,2495,
VSGYRIFDKKS [RC-044],8.0,10392,1302,
VSGYRIFEKKS [RC-129],5.8,12040,2068,
VSGYRIFEKKS [RC-152],5.6,9688,1715,
VSGYRIFEKKW [RC-113],5.3,6207,1176,
VSGYRIFERKW [RC-206],5.9,7413,1260,
VSGYRLFDKKS [RC-134],7.7,9409,1223,
VSGYRLFDKKS [RC-187],7.9,11049,1405,"luminescence value ([2]; PCT 0.0, background): 5000; luminescence value ([2]; PCT 1 (pg/ml)): 4944; luminescence value ([2]; PCT 3 (pg/ml)): 4968; luminescence value ([2]; PCT 10 (pg/ml)): 5099; luminescence value ([2]; PCT 30 (pg/ml)): 5570; luminescence value ([2]; PCT 100 (pg/ml)): 7032; luminescence value ([2]; PCT 1000 (pg/ml)): 27642; luminescence value ([2]; PCT 10000 (pg/ml)): 214329; luminescence value ([2]; PCT 100000 (pg/ml)): 910908; luminescence value ([2]; PCT 250000 (pg/ml)): 1012760; Signal-to-noise ratio at 1000 pg/ml [2]: 5.5"
VSGYRLFDKKW [RC-099],7.0,8149,1164,"luminescence value ([2]; PCT 0.0, background): 5000; luminescence value ([2]; PCT 1 (pg/ml)): 5106; luminescence value ([2]; PCT 3 (pg/ml)): 5166; luminescence value ([2]; PCT 10 (pg/ml)): 5453; luminescence value ([2]; PCT 30 (pg/ml)): 5950; luminescence value ([2]; PCT 100 (pg/ml)): 7470; luminescence value ([2]; PCT 1000 (pg/ml)): 28688; luminescence value ([2]; PCT 10000 (pg/ml)): 243815; luminescence value ([2]; PCT 100000 (pg/ml)): 1744023; luminescence value ([2]; PCT 250000 (pg/ml)): 2942238; Signal-to-noise ratio at 1000 pg/ml [2]: 5.7"
VSGYRLFDKKW [RC-261],4.5,7217,1616,
VSGYRLFDKVS [RC-114],6.5,6401,982,
VSGYRLFDKVS [RC-208],6.0,12303,2056,
VSGYRLFDRKS [RC-018],6.6,13188,1998,
VSGYRLFDRKS [RC-098],5.1,8666,1698,
VSGYRLFDRKS [RC-228],5.4,16339,3000,
VSGYRLFDRKW [RC-033],10.4,8509,820,
VSGYRLFDRVS [RC-032],4.8,9519,1998,
VSGYRLFDRVW [RC-220],5.7,6738,1192,
